Test results from article PMC11110727, “Exploiting thiol-functionalized benzosiloxaboroles for achieving diverse substitution patterns – synthesis, characterization and biological evaluation of promising antibacterial agents” (RSC Medicinal Chemistry, 2024).
Values after ≈ are worked out from the molar mass of the structure shown. Like-named read-outs stand apart in the source and are kept apart here.

Legend:
[1] = tested on: K. pneumoniae ATCC 13883; assay: Antibacterial activity: MIC/MBC, MIC with PAβN, disc-diffusion; format: cell-based, Klebsiella pneumoniae; settings: for MIC: Klebsiella pneumoniae, ATCC13883
Outline: (§1)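 Read-outs are disc-diffusion zones, broth-microdilution MICs and bactericidal concentrations (MBC), following EUCAST and CLSI guidance. The efflux contribution was probed by rerunning MICs with 20 μg mL^−1 PAβN in MgSO4-supplemented (1 mM) Mueller–Hinton II broth, a ≥4-fold decrease being significant.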

[2] = tested on: E. faecalis ATCC 29212; assay: Antibacterial activity: MIC/MBC determination and disc-diffusion; format: cell-based; settings: Enterococcus faecalis, ATCC29212
Outline: (§2)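 Antimicrobial susceptibility was assessed by agar disc diffusion and MIC assays per EUCAST and CLSI standards. Minimum bactericidal and fungicidal concentrations were established according to CLSI.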

[3] = tested on: S. epidermidis ATCC 12228; assay: as above; format: cell-based; settings: Staphylococcus epidermidis, ATCC12228
Outline: as §2

[4] = tested on: B. bronchiseptica ATCC 4617; assay: Antibacterial activity: MIC/MBC, disc-diffusion; format: cell-based, Bordetella bronchiseptica; settings: Bordetella bronchiseptica, ATCC4617
Outline: as §1

[5] = tested on: C. guilliermondii IBA 155; assay: Antifungal activity: MIC/MFC, disc-diffusion; format: cell-based; settings: for diameter of inhibition zone / MFC: C. guilliermondii IBA 155; for diameter of inhibition zone: (-) = zone not observed, paper discs 9 mm; for MIC / MFC: Meyerozyma guilliermondii, IBA155
Outline: (§3)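 Strains held at −80 °C were subcultured twice (TSA for bacteria, Sabouraud dextrose agar for yeasts; 24–48 h, 30 °C). MICs were then measured and disc diffusion run following EUCAST and CLSI guidance. Cidal endpoints (MBC, MFC) were assessed per CLSI.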

[6] = tested on: P. aeruginosa ATCC 27853; assay: Antibacterial activity: MIC/MBC, MIC with PAβN, disc-diffusion; format: cell-based; settings: Pseudomonas aeruginosa, ATCC27853
Outline: as §1

[7] = tested on: A. baumannii ATCC 19606; assay: as above; format: cell-based, Acinetobacter baumannii; settings: Acinetobacter baumannii, ATCC19606
Outline: as §1

[8] = tested on: S. aureus ATCC 6538P; assay: Antibacterial activity: MIC/MBC determination and disc-diffusion; format: cell-based, Staphylococcus aureus; settings: for diameter of inhibition zone: disc-diffusion, — = zone not observed; for MIC / MBC: Staphylococcus aureus, ATCC6538P
Outline: as §2

[9] = tested on: C. albicans ATCC 90028; assay: Antifungal activity: MIC/MFC, disc-diffusion; format: cell-based, Candida albicans; settings: for diameter of inhibition zone: C. albicans ATCC 90028, (-) = zone not observed, paper discs 9 mm; for MIC: Candida albicans, ATCC90028
Outline: as §3

[10] = tested on: S. cerevisiae ATCC 9763; assay: Antifungal activity: MIC/MFC, disc-diffusion; format: cell-based, Saccharomyces cerevisiae; settings: for diameter of inhibition zone / MFC: S. cerevisiae ATCC 9763; for diameter of inhibition zone: (-) = zone not observed, paper discs 9 mm; for MIC / MFC: Saccharomyces cerevisiae, ATCC9763
Outline: as §3

[11] = K. pneumoniae ATCC 13883, read-out: MIC
[12] = E. faecalis ATCC 29212, read-out: MIC
[13] = S. epidermidis ATCC 12228, read-out: MIC
[14] = B. bronchiseptica ATCC 4617, read-out: MIC
[15] = P. aeruginosa ATCC 27853, read-out: MIC
[16] = A. baumannii ATCC 19606, read-out: MIC
[17] = S. aureus ATCC 6538P, read-out: MIC
[18] = S. aureus ATCC 6538P, read-out: MBC (first MBC where Eagle effect)
[19] = S. aureus ATCC 6538P, value after the slash, read-out: second MBC (Eagle effect)

Compound | MIC [1, 11] | MIC [2, 12] | MIC [3, 13] | MIC [4, 14] | diameter of inhibition zone [5] | MIC ([5]; read-out: MIC) | MIC [6, 15] | MIC [7, 16] | diameter of inhibition zone ([8]; S. aureus ATCC 6538P) | MIC [8, 17] | diameter of inhibition zone [9] | MIC ([9]; read-out: MIC) | diameter of inhibition zone [10] | MIC ([10]; read-out: MIC) | MBC ([2]; E. faecalis ATCC 29212) | MBC ([3]; S. epidermidis ATCC 12228) | MBC [8, 18] | MFC [10] | other results
C[Si]1(C)OB(O)c2ccc(SC3CC(=O)N(c4ccc(F)cc4)C3=O)c(F)c21 (stereo not shown) [Compound 15, 3-((7-Fluoro-3-hydroxy-1,1-dimethyl-1,3-dihydrobenzo[c][1,2,5]oxasilaborol-6-yl)thio)-1-(4-fluorophenyl)pyrrolidine-2,5-dione] | > 200 µg/mL | 12.5 µg/mL (≈ 29.8 µM) | 12.5 µg/mL (≈ 29.8 µM) | > 200 µg/mL | 28 mm | 200 µg/mL (≈ 477 µM) | > 200 µg/mL | > 200 µg/mL | 23 mm | 25 µg/mL (≈ 59.6 µM) | 19 mm | 200 µg/mL (≈ 477 µM) | 26 mm | 200 µg/mL (≈ 477 µM) |  |  |  |  | 
C[Si]1(C)OB(O)c2cc(F)c(SC3CC(=O)N(c4ccc(Br)c(C(F)(F)F)c4)C3=O)c(F)c21 (stereo not shown) [Compound 16, 1-(4-Bromo-3-(trifluoromethyl)phenyl)-3-((5,7-difluoro-3-hydroxy-1,1-dimethyl-1,3-dihydrobenzo[c][1,2,5]oxasilaborol-6-yl)thio)pyrrolidine-2,5-dione] | > 200 µg/mL | 25 µg/mL (≈ 44.2 µM) | 50 µg/mL (≈ 88.3 µM) | 200 µg/mL (≈ 353 µM) | 30 mm | 12.5 µg/mL (≈ 22.1 µM) | > 200 µg/mL | > 200 µg/mL | 20 mm | 50 µg/mL (≈ 88.3 µM) | 25 mm | 50 µg/mL (≈ 88.3 µM) | 35 mm | 6.25 µg/mL (≈ 11 µM) | 200 µg/mL (≈ 353 µM) | 100 µg/mL (≈ 177 µM) | 100 µg/mL (≈ 177 µM) | 50 µg/mL (≈ 88.3 µM) | MFC [5]: 50 µg/mL (≈ 88.3 µM)
C[Si]1(C)OB(O)c2ccc(SC3CC(=O)N(c4ccc(Br)c(C(F)(F)F)c4)C3=O)c(F)c21 (stereo not shown) [Compound 17, 1-(4-Bromo-3-(trifluoromethyl)phenyl)-3-((7-fluoro-3-hydroxy-1,1-dimethyl-1,3-dihydrobenzo[c][1,2,5]oxasilaborol-6-yl)thio)pyrrolidine-2,5-dione] | > 200 µg/mL | 12.5 µg/mL (≈ 22.8 µM) | 12.5 µg/mL (≈ 22.8 µM) | 200 µg/mL (≈ 365 µM) | 27 mm | 50 µg/mL (≈ 91.2 µM) | > 200 µg/mL | > 200 µg/mL | 19 mm | 25 µg/mL (≈ 45.6 µM) | 20 mm | 100 µg/mL (≈ 182 µM) | 33 mm | 6.25 µg/mL (≈ 11.4 µM) | 200 µg/mL (≈ 365 µM) | 100 µg/mL (≈ 182 µM) | 100 µg/mL (≈ 182 µM) | 100 µg/mL (≈ 182 µM) | MFC [5]: 200 µg/mL (≈ 365 µM)
C[Si]1(C)OB(O)c2cc(F)c(SCCC(=O)OCCCCCC[n+]3ccccc3)c(F)c21 [Compound 18, 1-(6-((3-((5,7-difluoro-3-hydroxy-1,1-dimethyl-1,3-dihydrobenzo[c][1,2,5]oxasilaborol-6-yl)thio)propanoyl)oxy)hexyl)pyridin-1-ium trifluoromethanesulfonate] | > 400 µg/mL | 200 µg/mL | 50 µg/mL | > 400 µg/mL |  | > 400 µg/mL | > 400 µg/mL | > 400 µg/mL | 19 mm | 25 µg/mL |  | > 400 µg/mL |  | > 400 µg/mL |  | 200 µg/mL | 100 µg/mL |  | 
C[Si]1(C)OB(O)c2ccc(SCCC(=O)OCCCCCC[n+]3ccccc3)c(F)c21 [Compound 19, 1-(6-((3-((7-Fluoro-3-hydroxy-1,1-dimethyl-1,3-dihydrobenzo[c][1,2,5]oxasilaborol-6-yl)thio)propanoyl)oxy)hexyl)pyridin-1-ium trifluoromethanesulfonate] | > 400 µg/mL | 100 µg/mL | 25 µg/mL | > 400 µg/mL |  | > 400 µg/mL | > 400 µg/mL | > 400 µg/mL | 20 mm | 25 µg/mL |  | > 400 µg/mL |  | > 400 µg/mL | 400 µg/mL | 100 µg/mL | 100 µg/mL |  | 
C[Si]1(C)OB(O)c2cc(F)c(SCCS(=O)(=O)c3ccccc3)c(F)c21 [Compound 20, 5,7-Difluoro-1,1-dimethyl-6-((2-(phenylsulfonyl)ethyl)thio)benzo[c][1,2,5]oxasilaborol-3(1H)-ol] | > 400 µg/mL | 100 µg/mL (≈ 241 µM) | 25 µg/mL (≈ 60.3 µM) | > 400 µg/mL |  | > 400 µg/mL | > 400 µg/mL | > 400 µg/mL | 30 mm | 3.12 µg/mL (≈ 7.53 µM) |  | > 400 µg/mL | 16 mm | 400 µg/mL (≈ 965 µM) |  | 400 µg/mL (≈ 965 µM) | 12.5 µg/mL (≈ 30.2 µM) |  | -fold reduction of MIC in the presence of PAβN ([1]; K. pneumoniae ATCC 13883, PAβN 20 μg mL^−1, MHB + 1 mM MgSO4): 4 -fold; MBC [8, 19]: 200 µg/mL (≈ 483 µM)
C[Si]1(C)OB(O)c2ccc(SCCS(=O)(=O)c3ccccc3)c(F)c21 [Compound 21, 7-Fluoro-1,1-dimethyl-6-((2-(phenylsulfonyl)ethyl)thio)benzo[c][1,2,5]oxasilaborol-3(1H)-ol] | > 400 µg/mL | 200 µg/mL (≈ 505 µM) | 25 µg/mL (≈ 63.1 µM) | > 400 µg/mL |  | > 400 µg/mL | > 400 µg/mL | > 400 µg/mL | 26 mm | 12.5 µg/mL (≈ 31.5 µM) |  | 400 µg/mL (≈ 1010 µM) | 30 mm | 6.25 µg/mL (≈ 15.8 µM) |  |  | 200 µg/mL (≈ 505 µM) | 100 µg/mL (≈ 252 µM) | 
CC(=O)CSc1ccc2c(c1F)[Si](C)(C)OB2O [Compound 22, 1-((7-Fluoro-3-hydroxy-1,1-dimethyl-1,3-dihydrobenzo[c][1,2,5]oxasilaborol-6-yl)thio)propan-2-one] | > 400 µg/mL | 25 µg/mL (≈ 88 µM) | 6.25 µg/mL (≈ 22 µM) | > 400 µg/mL |  | > 400 µg/mL | > 400 µg/mL | > 400 µg/mL | 25 mm | 1.56 µg/mL (≈ 5.49 µM) |  | > 400 µg/mL | 17 mm | 400 µg/mL (≈ 1410 µM) | 400 µg/mL (≈ 1410 µM) | 12.5 µg/mL (≈ 44 µM) | 200 µg/mL (≈ 704 µM) |  | 
C[Si]1(C)OB(O)c2ccc(SCC(=O)c3ccccc3)c(F)c21 [Compound 23, 2-((7-Fluoro-3-hydroxy-1,1-dimethyl-1,3-dihydrobenzo[c][1,2,5]oxasilaborol-6-yl)thio)-1-phenylethan-1-one] | > 400 µg/mL | 50 µg/mL (≈ 144 µM) | 12.5 µg/mL (≈ 36.1 µM) | > 400 µg/mL |  | > 400 µg/mL | > 400 µg/mL | > 400 µg/mL | 31 mm | 1.56 µg/mL (≈ 4.51 µM) |  | > 400 µg/mL | 24 mm | 25 µg/mL (≈ 72.2 µM) | 200 µg/mL (≈ 578 µM) | 50 µg/mL (≈ 144 µM) | 3.12 µg/mL (≈ 9.01 µM) | 200 µg/mL (≈ 578 µM) | MBC [8, 19]: 200 µg/mL (≈ 578 µM)
CCOP(=O)(OCC)Sc1c(F)cc2c(c1F)[Si](C)(C)OB2O [Compound 24, S-(5,7-Difluoro-3-hydroxy-1,1-dimethyl-1,3-dihydrobenzo[c][1,2,5]oxasilaborol-6-yl) O,O-diethyl phosphorothioate] |  |  |  |  |  |  |  |  | 32 mm |  |  |  |  |  |  |  |  |  | MIC [1]: > 400 µg/mL; MIC [2]: > 400 µg/mL; MIC [3]: 100 µg/mL (≈ 262 µM); MIC [4]: > 400 µg/mL; MIC [5]: > 400 µg/mL; MIC [6]: > 400 µg/mL; MIC [7]: > 400 µg/mL; MIC [8]: 6.25 µg/mL (≈ 16.4 µM); MBC ([8]; read-out: MBC (first MBC where Eagle effect)): 12.5 µg/mL (≈ 32.7 µM); MBC ([8]; read-out: second MBC (Eagle effect)): > 400 µg/mL; MIC [9]: > 400 µg/mL; MIC [10]: > 400 µg/mL
